In patent US11813306B2, “Cyclic tetramer compounds as proprotein convertase subtilisin/kexin type 9 (PCSK9) inhibitors for the treatment of metabolic disorders” (NOVARTIS AG, priority 2018, dated 2023):

Biological target: human PCSK9 (Homo sapiens, UniProt Q8NBP7)
Experiment: PCSK9 ligand binding assay (TR-FRET): interference with binding of human PCSK9 to human LDLR
Conditions: for IC50: Human PCSK9 Alexa Fluor 647 / Human LDLR extracellular domain-Europium Kryptate; for Max % inhibition: efficacy (Amax), 100% = 1 uM unlabeled human PCSK9, 0% = DMSO
Method in brief: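 Read-out was TR-FRET ratio (665 nm over 615 nm, 330 nm excitation) between Alexa Fluor 647-human PCSK9 (16 nM added) and Europium Kryptate-human LDLR ectodomain (4 nM added). Compound and PCSK9 were mixed 30 min before LDLR, then incubated 2 h. Inhibition was normalised to DMSO and unlabelled-PCSK9 controls, giving IC50 and Amax.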

Chain of human PCSK9 (Q8NBP7 153-692): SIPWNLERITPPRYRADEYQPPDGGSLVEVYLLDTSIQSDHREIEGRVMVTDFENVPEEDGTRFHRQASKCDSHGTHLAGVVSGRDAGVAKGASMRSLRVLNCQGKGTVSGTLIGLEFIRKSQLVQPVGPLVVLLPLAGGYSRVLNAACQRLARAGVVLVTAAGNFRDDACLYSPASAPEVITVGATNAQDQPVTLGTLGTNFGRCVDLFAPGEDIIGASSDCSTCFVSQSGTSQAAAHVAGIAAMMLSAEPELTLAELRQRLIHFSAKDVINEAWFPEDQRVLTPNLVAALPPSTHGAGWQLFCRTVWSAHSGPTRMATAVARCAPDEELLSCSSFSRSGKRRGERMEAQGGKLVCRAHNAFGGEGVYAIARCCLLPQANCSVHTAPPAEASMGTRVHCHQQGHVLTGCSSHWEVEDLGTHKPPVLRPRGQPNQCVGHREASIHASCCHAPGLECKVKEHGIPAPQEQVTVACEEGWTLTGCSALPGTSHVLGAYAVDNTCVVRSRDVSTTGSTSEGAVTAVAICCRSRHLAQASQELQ
Chain of human PCSK9 (Q8NBP7 31-152 partner limits assumed): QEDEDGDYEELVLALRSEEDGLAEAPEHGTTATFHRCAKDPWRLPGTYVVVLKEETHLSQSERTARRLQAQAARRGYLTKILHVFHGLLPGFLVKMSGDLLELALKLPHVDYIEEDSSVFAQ

Compound	IC50 [nM]	Max % inhibition [%]
C[C@H]1C(=O)N[C@@H](CO)C(=O)N[C@@]2(Cc3ccc(Cl)cc3)CCCN(C2)C(=O)[C@H](CC2CC2)CC(=O)N1Cc1c(F)cc(Cl)cc1Oc1ccc(-c2cnc(CN(C)C(C)(C)C)n2C)cc1 [Compound 163, (3R, 7S, 10S, 13R)-6-(2-(4-(2-((tert-butyl(methyl)amino)methyl)-1-methyl-1H-imidazol-5-yl)phenoxy)-4-chloro-6-fluorobenzyl)-13-(4-chlorobenzyl)-3-(cyclopropylmethyl)-10-(hydroxymethyl)-7-methyl-1,6,9,12-tetraazabicyclo[11.3.1]heptadecane-2,5,8,11-tetraone]	1.21	111.6
C[C@H]1C(=O)N[C@@H](CO)C(=O)N[C@@]2(Cc3ccc(Cl)cc3)CCCN(C2)C(=O)[C@H](C2CC(F)(F)C2)CC(=O)N1Cc1c(F)cc(Cl)cc1Oc1ccc(-c2cnc(CN(C)C)n2C)cc1 [Compound 161, (3S, 7S, 10S, 13R)-6-(4-chloro-2-(4-(2-((dimethylamino)methyl)-1-methyl-1H-imidazol-5-yl)phenoxy)-6-fluorobenzyl)-13-(4-chlorobenzyl)-3-(3,3-difluorocyclobutyl)-10-(hydroxymethyl)-7-methyl-1,6,9,12-tetraazabicyclo[11.3.1]heptadecane-2,5,8,11-tetraone]	0.33	115.5
COC[C@@H]1NC(=O)[C@H](C)N(Cc2ccc(Cl)cc2Oc2ccc(-c3cnc(CN4CCCC4)n3C)cc2)C(=O)C[C@@H](N(C)C)C(=O)N(C)C[C@@H](Cc2ccc(Cl)cc2)N(C)C1=O.Cl [Compound 134, (2S, 5S, 8R, 12R)-1-(4-chloro-2-(4-(1-methyl-2-(pyrrolidin-1-ylmethyl)-1H-imidazol-5-yl)phenoxy)benzyl)-8-(4-chlorobenzyl)-12-(dimethylamino)-5-(methoxymethyl)-2,7,10-trimethyl-1,4,7,10-tetraazacyclotetradecane-3,6,11,14-tetraone]	490	93.6
C[C@H]1C(=O)N[C@@H](CO)C(=O)N[C@@]2(Cc3ccc(Cl)cc3)CCCN(C2)C(=O)[C@H](Cc2ccccc2)CC(=O)N1Cc1ccc(Cl)c(F)c1Oc1ccc(-c2cnc(CN(C)C)n2C)cc1 [Compound 25, (3R, 7S, 10S, 13R)-3-benzyl-6-(4-chloro-2-(4-(2-((dimethylamino)methyl)-1-methyl-1H-imidazol-5-yl)phenoxy)-3-fluorobenzyl)-13-(4-chlorobenzyl)-10-(hydroxymethyl)-7-methyl-1,6,9,12-tetraazabicyclo[11.3.1]heptadecane-2,5,8,11-tetraone]	0.438	100.8
C[C@H]1C(=O)N[C@@H](CO)C(=O)N[C@@]2(Cc3ccc(Cl)cc3)CCCN(C2)C(=O)CCC(=O)N1Cc1c(OCC(F)(F)F)cc(Cl)cc1Oc1ccc(-c2cnc(CN(C)C)n2C)cc1 [Compound 36, (7S, 10S, 13R)-6-(4-chloro-2-(4-(2-((dimethylamino)methyl)-1-methyl-1H-imidazol-5-yl)phenoxy)-6-(2,2,2-trifluoroethoxy)benzyl)-13-(4-chlorobenzyl)-10-(hydroxymethyl)-7-methyl-1,6,9,12-tetraazabicyclo[11.3.1]heptadecane-2,5,8,11-tetraone]	0.584	104.5
C[C@H]1C(=O)N[C@@H](CO)C(=O)N(C)[C@@]2(Cc3ccc(Cl)cc3)CCCN(C2)C(=O)[C@H](Cc2ccccc2)CC(=O)N1Cc1ccc(Cl)cc1Oc1ccc(-c2cnc(CN(C)C)n2C)nc1 [Compound 71]	0.754	102.6
COC[C@@H]1NC(=O)[C@H](C)N(Cc2c(F)cc(Cl)cc2Oc2ccc(-c3cnc(CN(C)C)n3C)cc2)C(=O)C[C@@H](Cc2ccccn2)C(=O)N2CCC[C@@](Cc3ccc(Cl)cc3)(C2)N(C)C1=O [Compound 57, (3R,7S,10S,13R)-6-(4-Chloro-2-(4-(2-((dimethylamino)methyl)-1-methyl-1H-imidazol-5-yl)phenoxy)-6-fluorobenzyl)-13-(4-chlorobenzyl)-10-(methoxymethyl)-7,12-dimethyl-3-(pyridin-2-ylmethyl)-1,6,9,12-tetraazabicyclo[11.3.1]heptadecane-2,5,8,11-tetraone]	0.763	115.6
COC[C@@H]1NC(=O)[C@H](C)N(Cc2c(F)cc(Cl)cc2Oc2ccc(-c3cnc(CN(C)C4CCC4)n3C)cc2)C(=O)C[C@@H](CC(F)(F)F)C(=O)N2CCC[C@@](Cc3ccc(Cl)cc3)(C2)NC1=O [Compound 160, (3S, 7S, 10S, 13R)-6-(4-chloro-2-(4-(2-((cyclobutyl(methyl)amino)methyl)-1-methyl-1H-imidazol-5-yl)phenoxy)-6-fluorobenzyl)-13-(4-chlorobenzyl)-10-(methoxymethyl)-7-methyl-3-(2,2,2-trifluoroethyl)-1,6,9,12-tetraazabicyclo[11.3.1]heptadecane-2,5,8,11-tetraone]	1.63	113.8
C[C@H]1C(=O)N[C@@H](CO)C(=O)N[C@@]2(Cc3ccc(Cl)cc3)CCCN(C2)C(=O)[C@H]([C@H]2CCc3ncccc32)CC(=O)N1Cc1ccc(Cl)cc1Oc1ccc(-c2cnc(CN(C)C)n2C)cc1.Cl [Compound 16, (3S, 7S, 10S, 13R)-6-(4-chloro-2-(4-(2-((dimethylamino)methyl)-1-methyl-1H-imidazol-5-yl)phenoxy)benzyl)-13-(4-chlorobenzyl)-3-((R)-6,7-dihydro-5H-cyclopenta[b]pyridin-5-yl)-10-(hydroxymethyl)-7-methyl-1,6,9,12-tetraazabicyclo[11.3.1]heptadecane-2,5,8,11-tetraone]	0.529	97.5
COC[C@@H]1NC(=O)[C@H](C)N(Cc2ccc(Cl)cc2Oc2ccc(-c3cnc(CN4CCN(C)CC4)n3C)cc2)C(=O)C[C@@H](Cc2ccccc2)C(=O)N2CCC[C@@](Cc3ccc(Cl)cc3)(C2)NC1=O.Cl [Compound 76, (3R, 7S, 10S, 13R)-3-benzyl-6-(4-chloro-2-(4-(1-methyl-2-((4-methylpiperazin-1-yl)methyl)-1H-imidazol-5-yl)phenoxy)benzyl)-13-(4-chlorobenzyl)-10-(methoxymethyl)-7-methyl-1,6,9,12-tetraazabicyclo[11.3.1]heptadecane-2,5,8,11-tetraone]	0.81	101.7
CC[C@@H]1CC(=O)N(Cc2ccc(Cl)cc2Oc2ccc(-c3cnc(CN4CCCC4)n3C)cc2)[C@@H](C)C(=O)N[C@@H](CO)C(=O)N(C)[C@H](Cc2ccc(Cl)cc2)CNC1=O.Cl [Compound 124, (2S, 5S, 8R, 12R)-1-(4-chloro-2-(4-(1-methyl-2-(pyrrolidin-1-ylmethyl)-1H-imidazol-5-yl)phenoxy)benzyl)-8-(4-chlorobenzyl)-12-ethyl-5-(hydroxymethyl)-2,7-dimethyl-1,4,7,10-tetraazacyclotetradecane-3,6,11,14-tetraone]	102	96.8
C[C@H]1C(=O)N[C@@H](CO)C(=O)N(C)[C@@]2(Cc3ccc(Cl)cc3)CCCN(C2)C(=O)[C@H](CC(F)(F)F)CC(=O)N1Cc1ccc(Cl)cc1Oc1ccc(-c2cnc(CN(C)C)n2C)cc1 [Compound 20, (3S, 7S, 10S, 13R)-6-(4-chloro-2-(4-(2-((dimethylamino)methyl)-1-methyl-1H-imidazol-5-yl)phenoxy)benzyl)-13-(4-chlorobenzyl)-10-(hydroxymethyl)-7,12-dimethyl-3-(2,2,2-trifluoroethyl)-1,6,9,12-tetraazabicyclo[11.3.1]heptadecane-2,5,8,11-tetraone]	0.187	117.5
COC[C@@H]1NC(=O)[C@H](C)N(Cc2ccc(Cl)cc2Oc2ccc(-c3cnc(CN(C)C)n3C)cc2)C(=O)C[C@@H](CC(F)(F)F)C(=O)N2CCC[C@@](Cc3ccc(Cl)cc3)(C2)N(C)C1=O [Compound 9, (3S, 7S, 10S, 13R)-6-(4-chloro-2-(4-(2-((dimethylamino)methyl)-1-methyl-1H-imidazol-5-yl)phenoxy)benzyl)-13-(4-chlorobenzyl)-10-(methoxymethyl)-7,12-dimethyl-3-(2,2,2-trifluoroethyl)-1,6,9,12-tetraazabicyclo[11.3.1]heptadecane-2,5,8,11-tetraone]	0.22	111.3
C[C@H]1C(=O)N[C@@H](COC(F)F)C(=O)N[C@@]2(Cc3ccc(Cl)cc3)CCCN(C2)C(=O)[C@H](Cc2ccccn2)CC(=O)N1Cc1ccc(Cl)cc1Oc1ccc(-c2cnc(CN3CCCC3)n2C)cc1 [Compound 30, (3R,7S,10S,13R)-6-(4-Chloro-2-(4-(1-methyl-2-(pyrrolidin-1-ylmethyl)-1H-imidazol-5-yl)phenoxy)benzyl)-13-(4-chlorobenzyl)-10-((difluoromethoxy)methyl)-7-methyl-3-(pyridin-2-ylmethyl)-1,6,9,12-tetraazabicyclo[11.3.1]heptadecane-2,5,8,11-tetraone]	0.819	106.2
C[C@H]1C(=O)N[C@@H](CO)C(=O)N[C@@]2(Cc3ccc(Cl)cc3)CCCN(C2)C(=O)[C@H](CC(C)(F)F)CC(=O)N1Cc1c(F)cc(Cl)cc1Oc1ccc(-c2cnc(CN(C)C)n2C)cc1 [Compound 146, (3S, 7S, 10S, 13R)-6-(4-chloro-2-(4-(2-((dimethylamino)methyl)-1-methyl-1H-imidazol-5-yl)phenoxy)-6-fluorobenzyl)-13-(4-chlorobenzyl)-3-(2,2-difluoropropyl)-10-(hydroxymethyl)-7-methyl-1,6,9,12-tetraazabicyclo[11.3.1]heptadecane-2,5,8,11-tetraone]	0.57	111.4
CCc1ccc(CN2C(=O)C[C@@H]([C@@H]3CCc4ccccc43)C(=O)N(C)C[C@@H](Cc3ccc(Cl)cc3)N(C)C(=O)[C@@H](CO)NC(=O)[C@@H]2C)c(Oc2ccc(-c3cnc(CN(C)C)n3C)cc2)c1 [Compound 121]	91.5	92.9
